{"source": "patent US20250109151A1", "about": "“SILYL-LIPID N-ACYL L-HOMOSERINE LACTONES AS QUORUM SENSING MOLECULES” (The Regents of the University of California, priority 2022, published 2025)", "key": {"TNF-α release": {"system": "TNF-α release", "settings": "LPS-induced model, at 30 min; cited from earlier work"}, "[1]": {"settings": "cited from earlier work"}, "LasR [2]": {"target": "T1, LasR (Pseudomonas aeruginosa, UniProt P25084)", "T1 construct": "expressed in transfected cells; host or cells: E. coli (reporter strain)", "T1 sequence (P25084 whole entry)": "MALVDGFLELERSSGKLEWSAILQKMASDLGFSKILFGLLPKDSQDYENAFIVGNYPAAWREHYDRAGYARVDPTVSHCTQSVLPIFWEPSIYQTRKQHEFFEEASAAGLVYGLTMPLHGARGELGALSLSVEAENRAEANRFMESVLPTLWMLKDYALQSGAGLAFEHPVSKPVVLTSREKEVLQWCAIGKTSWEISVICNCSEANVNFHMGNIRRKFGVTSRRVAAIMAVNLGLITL", "assay": "cell-based", "settings": "for Emax: read-out: Maximum Activation (%); for designation of the sample in the LasR agonism table: words in brackets after the sample code", "experimental": "15 compounds were assayed for LasR agonism using a beta-glo reporter assay in E. coli."}, "LasR [3]": {"target": "T1, LasR", "assay": "LasR antagonism assay", "assay_type": "cell-based", "settings": "for Emax: read-out: Maximum Activation (%)", "experimental": "3 compounds were assayed for LasR antagonism.\nThe IC50, […], and Max Activation for each sample is reported below."}}, "data": [{"smiles": "Cc1ccc(-n2nc(C(C)(C)C)cc2NC(=O)Nc2ccc(OCCN3CCOCC3)c3ccccc23)cc1", "note": "[BIRB-796]", "values": [{"measurement": "TNF-α suppression", "setting": "TNF-α release", "result": 41, "unit": "%"}]}, {"smiles": "O=C(O)[C@@H]1CCCN1C(=O)OCC1c2ccccc2-c2ccccc21", "note": "[Fmoc-Pro]", "values": [{"measurement": "Log P", "setting": "[1]", "result": 0.094}]}, {"smiles": "C[Si]1(C)CC(C(=O)O)N(C(=O)OCC2c3ccccc3-c3ccccc32)C1", "note": "(stereo not drawn) [Fmoc-Sip]", "values": [{"measurement": "Log P", "setting": "[1]", "result": 1.3}]}, {"smiles": "CCCCCCCC[Si](C)(C)CCCCC(=O)N[C@H]1CCOC1=O", "note": "[KMM 5-55-2, (S)-5-(dimethyl(octyl)silyl)-N-(2-oxotetrahydrofuran-3-yl)pentanamide]", "values": [{"measurement": "Emax", "setting": "LasR [2]", "result": 101, "unit": "%"}]}, {"smiles": "CC[Si](CC)(CC)CCCCC(=O)N[C@H]1CCOC1=O", "note": "[KMM 5-56-2, (S)-N-(2-oxotetrahydrofuran-3-yl)-5-(triethylsilyl)pentanamide]", "values": [{"measurement": "Emax", "setting": "LasR [2]", "result": 94.3, "unit": "%"}]}, {"smiles": "C[Si](C)(CCCCC(=O)N[C@H]1CCOC1=O)c1ccccc1", "note": "[LSD 1-32, (S)-5-(dimethyl(phenyl)silyl)-N-(2-oxotetrahydrofuran-3-yl)pentanamide]", "values": [{"measurement": "Emax", "setting": "LasR [2]", "result": 96.1, "unit": "%"}]}, {"smiles": "CCCC[Si](C)(C)CCCCC(=O)N[C@H]1CCOC1=O", "note": "[LSD 1-34, (S)-5-(butyldimethylsilyl)-N-(2-oxotetrahydrofuran-3-yl)pentanamide]", "values": [{"measurement": "Emax", "setting": "LasR [2]", "result": 101, "unit": "%"}]}, {"smiles": "CCCC[Si](C)(C)CCCCCCC(=O)N[C@H]1CCOC1=O", "note": "[LSD 1-35, (S)-7-(butyldimethylsilyl)-N-(2-oxotetrahydrofuran-3-yl)heptanamide]", "values": [{"measurement": "Emax", "setting": "LasR [2]", "result": 90.4, "unit": "%"}]}, {"smiles": "CCCCCCCC[Si](C)(C)CCCCCCC(=O)N[C@H]1CCOC1=O", "note": "[LSD 1-59, (S)-7-(dimethyl(octyl)silyl)-N-(2-oxotetrahydrofuran-3-yl)heptanamide]", "values": [{"measurement": "Emax", "setting": "LasR [2]", "result": 25, "unit": "%"}, {"measurement": "designation of the sample in the LasR agonism table", "setting": "LasR [2]", "result": "LSD 1-59 (inactive)"}]}, {"smiles": "C[Si](C)(CCCCCCC(=O)N[C@H]1CCOC1=O)c1ccccc1", "note": "[LSD 2-47, (S)-7-(dimethyl(phenyl)silyl)-N-(2-oxotetrahydrofuran-3-yl)heptanamide]", "values": [{"measurement": "Emax", "setting": "LasR [2]", "result": 99.7, "unit": "%"}]}, {"smiles": "CCCC[Si](CCCC)(CCCC)CCCCC(=O)N[C@H]1CCOC1=O", "note": "[LSD 2-65, (S)-N-(2-oxotetrahydrofuran-3-yl)-5-(tributylsilyl)pentanamide]", "values": [{"measurement": "Emax", "setting": "LasR [2]", "result": 79.8, "unit": "%"}]}, {"smiles": "C[Si](C)(CCCCC(=O)CC(=O)N[C@H]1CCOC1=O)c1ccccc1", "note": "[LSD 2-113, (S)-7-(dimethyl(phenyl)silyl)-3-oxo-N-(2-oxotetrahydrofuran-3-yl)heptanamide]", "values": [{"measurement": "Emax", "setting": "LasR [2]", "result": 106, "unit": "%"}]}, {"smiles": "C[Si](C)(C)O[Si](C)(C)CCCCC(=O)N[C@H]1CCOC1=O", "note": "[LSD 2-120, (S)-N-(2-oxotetrahydrofuran-3-yl)-5-(1,1,3,3,3-pentamethyldisiloxaneyl)pentanamide]", "values": [{"measurement": "Emax", "setting": "LasR [2]", "result": 94, "unit": "%"}]}, {"smiles": "C[Si](C)(c1ccccc1)c1ccc(CC(=O)N[C@H]2CCOC2=O)cc1", "note": "[LSD 133, (S)-2-(4-(dimethyl(phenyl)silyl)phenyl)-N-(2-oxotetrahydrofuran-3-yl)acetamide]", "values": [{"measurement": "EC50", "setting": "LasR [2]", "result": 0.015, "unit": "µM"}, {"measurement": "Emax", "setting": "LasR [2]", "result": 9, "unit": "%"}, {"measurement": "designation of the sample in the LasR agonism table", "setting": "LasR [2]", "result": "LSD 133 (antagonist)"}, {"measurement": "IC50", "setting": "LasR [3]", "result": 14.6, "unit": "µM"}, {"measurement": "Emax", "setting": "LasR [3]", "result": 97.2, "unit": "%"}]}, {"smiles": "CCCC[Si](C)(C)c1ccc(CC(=O)N[C@H]2CCOC2=O)cc1", "note": "[LSD 137, (S)-2-(4-(butyldimethylsilyl)phenyl)-N-(2-oxotetrahydrofuran-3-yl)acetamide]", "values": [{"measurement": "Emax", "setting": "LasR [2]", "result": 14.1, "unit": "%"}, {"measurement": "designation of the sample in the LasR agonism table", "setting": "LasR [2]", "result": "LSD 137 (antagonist)"}, {"measurement": "IC50", "setting": "LasR [3]", "result": 9.3, "unit": "µM"}, {"measurement": "Emax", "setting": "LasR [3]", "result": 101, "unit": "%"}]}, {"smiles": "CC[Si](CC)(CC)CCCCC(=O)CC(=O)N[C@H]1CCOC1=O", "note": "[LSD-92, (S)-3-oxo-N-(2-oxotetrahydrofuran-3-yl)-7-(triethylsilyl)heptanamide]", "values": [{"measurement": "Emax", "setting": "LasR [2]", "result": 86, "unit": "%"}]}]}
